Experimental data reported in ChEMBL document CHEMBL1154712, “Synthesis and cytotoxic activity of psorospermin and acronycine analogues in the 3-propyloxy-acridin-9(10H)-one and -benzo[b]acridin-125H-one series” (Eur J Med Chem, 2010).

Tests used:
L1210 = assay: Cytotoxicity against mouse L1210 cells after 48 hrs by microculture tetrazolium assay; format: functional, cell-based; details: L1210, 48 h
[1] = Cytotoxicity against human KB3-1 cells after 96 hrs by microculture tetrazolium assay; format: functional, cell-based; details: KB 3-1, 96 h

C=CCOc1cc(OC)c2c(=O)c3ccccc3n(C)c2c1
IC50 (L1210): 13.4 µM
IC50 [1]: 10.4 µM

C=CCOc1cc(OC)c2c(=O)c3cc4ccccc4cc3n(C)c2c1
IC50 (L1210): 33 µM
IC50 [1]: 3.7 µM

COc1cc2c(c3c1c(=O)c1ccccc1n3C)C[C@H]([C@@]1(C)CO1)O2 (racemic)
IC50 [1]: 0.06 µM

COc1cc2c(c3c1c(=O)c1cc4ccccc4cc1n3C)C[C@H]([C@@]1(C)CO1)O2 (racemic)
IC50 (L1210): 0.04 µM
IC50 [1]: 0.08 µM

COc1cc(OCC2COC(=O)O2)cc2c1c(=O)c1cc3ccccc3cc1n2C (racemic)
IC50 (L1210): 18.8 µM
IC50 [1]: 23.2 µM

COc1cc(OCC(COC(C)=O)OC(C)=O)cc2c1c(=O)c1ccccc1n2C (racemic)
IC50 (L1210): 40.6 µM
IC50 [1]: 37.8 µM

COc1cc(OCC2CO2)cc2c1c(=O)c1ccccc1n2C (racemic)
IC50 (L1210): 0.09 µM
IC50 [1]: 0.12 µM

COc1cc(OCC(O)COC(C)=O)cc2c1c(=O)c1ccccc1n2C (racemic)
IC50 (L1210): 32.4 µM
IC50 [1]: 22.5 µM

COc1cc(OCC2COC(=O)O2)cc2c1c(=O)c1ccccc1n2C (racemic)
IC50 (L1210): 37.2 µM
IC50 [1]: 24.1 µM

COc1cc(OCC(O)CO)cc2c1c(=O)c1cc3ccccc3cc1n2C (racemic)
IC50 (L1210): 79 µM
IC50 [1]: 65 µM

COc1cc(OCC(COC(C)=O)OC(C)=O)cc2c1c(=O)c1cc3ccccc3cc1n2C (racemic)
IC50 (L1210): 3.1 µM
IC50 [1]: 7.9 µM

COc1cc(OCC2CO2)cc2c1c(=O)c1cc3ccccc3cc1n2C (racemic)
IC50 (L1210): 0.03 µM
IC50 [1]: 0.2 µM

COc1cc(OCC(O)COC(C)=O)cc2c1c(=O)c1cc3ccccc3cc1n2C (racemic)
IC50 (L1210): 6.2 µM
IC50 [1]: 5.8 µM

COc1cc(OCC(O)CO)cc2c1c(=O)c1ccccc1n2C (racemic)
IC50 (L1210): 59.8 µM
IC50 [1]: 47.5 µM

COc1cc2c(c3c1c(=O)c1cc4ccccc4cc1n3C)[C@@H](OC(C)=O)[C@@H](OC(C)=O)C(C)(C)O2 (relative stereo)
IC50 [1]: 0.09 µM
